Measured values reported in US9127103B2, “Polymerizable liquid crystal compound, a liquid crystal composition comprising the compound, and an optically anisotropic body comprising the same” (LG CHEM, LTD., priority 2012, dated 2015).

How the values were obtained:
[1] = Measurement of solubility of the compound in various solvents; format: physicochemical; conditions: for Solubility TXB: TXB = Toluene:Xylene:Butyl cellosolve 7:2:1 (weight ratio); for Solubility TXB / Solubility Cyclopentanone / Solubility Toluene + Heated: 25 parts by weight per 100 parts of solution; for Solubility Toluene + Heated: room temperature solution heated about 10 secs with a heat gun; for Solubility Toluene: 25 parts by weight of compound per 100 parts by weight of total solution
Method: At this time, the content of each compound in the solvent was 25 parts by weight per 100 parts by weight of total solution. In the following Table 1, when the compound was completely dissolved in the solvent and the solution was transparent, it was indicated by ‘◯’; when the compound was dissolved in the solvent but the solution was opaque, it was indicated by ‘Δ’; and when the compound was not dissolved at all, it was indicated by ‘×’. And, the term ‘heated’ in Table 1 means that the solution of room temperature including the compound was heated for about 10 secs by using a heat gun.

[2] = Measurement of birefringence (Δn) of retardation films by Axoscan; format: physicochemical; conditions: retardation film of the compound; solvent TXB, TAC film; Δn calculated from retardation value and film thickness
Method: The liquid crystal composition coated with a roll coating method on a TAC (triacetyl cellulose) film on which norbornene-based photoaligning material was coated, and dried at about 80° C. for 2 mins so as that the liquid crystal compound was aligned. And then, the retardation film was prepared by exposing the film to a non-polarized UV from a high pressure mercury lamp of 200 mW/cm^2 so as to fixing the oriented state of the liquid crystal.
Like above method, the compositions including any one of compounds RM-02 to RM-08 instead of compound RM-01 were prepared, and the retardation films were prepared respectively by using the same.
And, the retardation film was prepared substantially according to the same method as in Preparation Examples 1˜8, except that the compound of Chemical Formula 10 was used instead of compound RM-01.
Quantitative retardation values of the retardation films according to Preparation Examples 1˜8, Comparative Preparation Examples 1˜2, and Reference Example were measured by using Axoscan (made by Axomatrix Co.). At this time, the thickness of the film was independently measured and Δn was calculated from the obtained values.

Row | SMILES | Solubility TXB [1] | Solubility Cyclopentanone [1] | Solubility Toluene + Heated [1] | Δn (Solvent, Film) [2] | Solubility Toluene [1] | Solubility in TXB mixed solvent [1] | Solubility in toluene [1] | Solubility in toluene with heating [1]
1 | C=CC(=O)OCCCCCCOc1ccc2cc(C(=O)Oc3ccc(OC(=O)c4ccc5cc(OCCCCCCOC(=O)C=C)ccc5c4)c([N+](=O)[O-])c3)ccc2c1 [RM-04] | ∘ | ∘ | ∘ | 0.20 (TXB, TAC) | – | – | – | –
2 | C=CC(=O)OCCCOc1ccc(C(=O)Oc2ccc(OC(=O)c3ccc(OCCCOC(=O)C=C)cc3)c(C)c2)cc1 [RM257, reference compound] | ∘ | ∘ | ∘ | 0.12 (TXB, TAC) | – | – | – | –
3 | C=CC(=O)OCCCOc1ccc2cc(C(=O)Oc3ccc(OC(=O)c4ccc5cc(OCCCOC(=O)C=C)ccc5c4)c(S(C)(=O)=O)c3)ccc2c1 [RM-05] | ∘ | ∘ | ∘ | 0.19 (TXB, TAC) | ∘ | – | – | –
4 | C=CC(=O)OCCCCCCOc1ccc2cc(C(=O)Oc3ccc(OC(=O)c4ccc5cc(OCCCCCCOC(=O)C=C)ccc5c4)cc3)ccc2c1 [RM-10, reference compound] | – | – | – | – | – | not dissolved in TXB mixed solvent at all | not dissolved in toluene at all | just opaque solution was obtained
5 | C=CC(=O)OCCCCCCOc1ccc2cc(C(=O)Oc3ccc(OC(=O)c4ccc5cc(OCCCCCCOC(=O)C=C)ccc5c4)c(C=O)c3)ccc2c1 [RM-02] | ∘ | – | ∘ | 0.18 (TXB, TAC) | – | – | – | –
6 | C=CC(=O)OCCCOc1ccc2cc(C(=O)Oc3ccc(OC(=O)c4ccc5cc(OCCCOC(=O)C=C)ccc5c4)cc3)ccc2c1 [RM-09, reference compound] | – | – | – | – | – | not dissolved in TXB mixed solvent at all | not dissolved in toluene at all | just opaque solution was obtained
7 | C=CC(=O)OCCCCCCOc1ccc2cc(C(=O)Oc3ccc(OC(=O)c4ccc5cc(OCCCCCCOC(=O)C=C)ccc5c4)c(S(=O)(=O)CC)c3)ccc2c1 [RM-08] | ∘ | ∘ | ∘ | 0.22 (TXB, TAC) | – | – | – | –
8 | C=CC(=O)OCCCOc1ccc2cc(C(=O)Oc3ccc(OC(=O)c4ccc5cc(OCCCOC(=O)C=C)ccc5c4)c([N+](=O)[O-])c3)ccc2c1 [RM-03] | ∘ | ∘ | ∘ | 0.17 (TXB, TAC) | ∘ | – | – | –
9 | C=CC(=O)OCCCOc1ccc2cc(C(=O)Oc3ccc(OC(=O)c4ccc5cc(OCCCOC(=O)C=C)ccc5c4)c(C=O)c3)ccc2c1 [RM-01] | ∘ | ∘ | ∘ | 0.17 (TXB, TAC) | – | – | – | –
10 | C=CC(=O)OCCCCCCOc1ccc2cc(C(=O)Oc3ccc(OC(=O)c4ccc5cc(OCCCCCCOC(=O)C=C)ccc5c4)c(S(C)(=O)=O)c3)ccc2c1 [RM-06] | ∘ | ∘ | ∘ | 0.20 (TXB, TAC) | – | – | – | –
11 | C=CC(=O)OCCCOc1ccc2cc(C(=O)Oc3ccc(OC(=O)c4ccc5cc(OCCCOC(=O)C=C)ccc5c4)c(S(=O)(=O)CC)c3)ccc2c1 [RM-07] | ∘ | ∘ | ∘ | 0.19 (TXB, TAC) | ∘ | – | – | –
